Usually IC50 stands for the concentration that gives 50% inhibition.

Like-named read-outs stand apart in the source and are kept apart here.

The experiment deals with HIV-1 fusion. The experiment in a line: cells. Type of experiment: cell-based. As to the method:
The gp160 induced cell-cell fusion assay uses a HeLa P4 cell line and a CHO-Tat10 cell line.
The HeLa P4 cell line expresses CCR5 and CD4 and has been transfected with HIV-1 LTR-β-Galactosidase. The media for this cell line is Dulbecco modified eagle's medium (D-MEM) (without L-glutamine) containing 10% foetal calf serum (FCS), 2 mM L-glutamine, penicillin/streptomycin (Pen/Strep; 100 U/mL penicillin+[…] streptomycin), and 1 μg/ml puromycin.
The CHO cell line is a Tat (transcriptional trans activator)-expressing clone from a CHO JRR17.1 cell line that has been transfected with pTat puro plasmid. The media for this cell line is rich medium for mammalian cell culture originally developed at Roswell Park Memorial Institute RPMI1640 (without L-glutamine) containing 10% FCS, 2 mM L-glutamine, 0.5 mg/ml Hygromycin B and 12 μg/ml puromycin. The CHO JRR17.1 line expresses gp160 (JRFL) and is a clone that has been selected for its ability to fuse with a CCR5/CD4 expressing cell line.
Upon cell fusion, Tat present in the CHO cell is able to transactivate the HIV-1 long terminal repeat (LTR) present in the HeLa cell leading to the expression of the β-Galactosidase enzyme. This expression is then measured using a Fluor Ace™ β-Galactosidase reporter assay kit (Bio-Rad cat no. 170-3150). This kit is a quantitative fluorescent assay that determines the level of expression of β-galactosidase using 4-methylumbelliferyl-galactopyranoside (MUG) as substrate. β-Galactosidase hydrolyses the fluorogenic substrate resulting in release of the fluorescent molecule 4-methylumbelliferone (4 MU). Fluorescence of 4-methylumbelliferone is then measured on a fluorometer using an excitation wavelength of 360 nm and emission wavelength of 460 nm.

Where [1] appears, read: HIV cell fusion assay, HeLa P4 (CCR5/CD4) and CHO-Tat10 (gp160 JRFL) cells, read-out: IC50.

Take `Cc1ccnc(C)c1C(=O)N1CCC(C)(N2CC[C@@H](N(Cc3ccccc3)C(=O)C3CC3)C2)CC1` [Example 62]: the IC50 under setting [1] is 0.34 nM.
On the same count and under the same terms, to `Cc1ncnc(C)c1C(=O)N1CCC(C)(N2CC[C@@H](N(Cc3ccccc3)C(=O)C3CC3)C2)CC1` [Example 63] belongs 8.18 nM; to `COCC(=O)N(Cc1ccccc1F)[C@@H]1CCN(C2(C)CCN(C(=O)c3c(C)ncnc3C)CC2)C1` [Example 64], 16.6 nM.
Same read-out and setting: to `Cc1cc[n+]([O-])c(C)c1C(=O)N1CCC(C)(N2CC[C@@H](N(Cc3ccccc3)C(=O)C3CC3)C2)CC1` [Example 65] belongs 26.5 nM.
The same measure, in the same setting: as for `COCC(=O)N(Cc1ccccc1F)[C@@H]1CCN(C2(C)CCN(C(=O)c3ccc(F)cc3Cl)CC2)C1` [Example 66], the figure is 28.5 nM; as for `Cc1ncnc(C)c1C(=O)N1CCC(C)(N2CC[C@@H](N(Cc3ccccc3)C(=O)C3CC(F)(F)C3)C2)CC1` [Example 67], 44.3 nM; as for `CCc1noc(C)c1C(=O)N1CCC(C)(N2CC[C@@H](N(Cc3ccccc3)C(=O)C3CC3)C2)CC1` [Example 68], 61.6 nM.
`Cc1cccc(C)c1C(=O)N1CCC(C)(N2CC[C@@H](N(C=O)Cc3ccccc3F)C2)CC1` [Example 69]: the 50% inhibitory concentration (IC50) under setting [1] came to 123 nM.
In turn, `Cc1ccnc(C)c1C(=O)N1[C@@H]2CC[C@H]1C[C@H](N1CC[C@@H](N(Cc3ccccc3)C(=O)C3CC3)C1)C2` [Example 70, N-benzyl-N-((3R)-1-[(3-exo)-8-[(2,4-dimethylpyridin-3-yl)carbonyl]-8-azabicyclo[3.2.1]oct-3-yl]pyrrolidin-3-yl)cyclopropanecarboxamide] yielded an IC50 (Human immunodeficiency virus 1, HeLaP4) of 2.65 nM.
Regarding `Cc1ncnc(C)c1C(=O)N1C2CCC1CC(N1CCC(N(Cc3ccccc3)C(=O)C3CC3)C1)C2` (centres unmarked) [Example 71], under setting [1], the IC50 came out at 4.27 nM.
On the same count and under the same terms, as for `Cc1ccccc1C(=O)N1C2CCC1CC(N1CCC(N(Cc3ccccc3)C(=O)C3CC3)C1)C2` (centres unmarked) [Example 72], the figure is 97.3 nM.

These data come from patent publication US20090124636A1, “CHEMICAL COMPOUNDS” (priority 2006, published 2009).
